US9060959B2, “Synergistic compositions and method for potentiating anti-oxidative activity” (The State of Israel, Ministry of Agriculture & Rural …, priority 2003, dated 2015)

Key:
[1] = system: peroxides / lipid peroxidation catalyzed by metmyoglobin; experiment: Simulated gastric system comprising polyphenol and metmyoglobin catalyst, with antacid; format: biochemical; conditions: low acidic conditions obtained by addition of antacid, metmyoglobin catalyst
Description: An unexpected phenomenon established by the inventors of the present invention is that that in the stomach, generation or breakdown of peroxides by endogenous catalysts or catalysts obtained from food products, or components thereof, and food supplements can be selected by polyphenols and antacids. In other words, the appropriate combination of polyphenol and antacids can invert the catalyzed reaction from pro-oxidation to antioxidation consequently attenuating lipid peroxidation in the stomach.
The terms “a gastric-simulating system” or “simulated gastric system” are interchangeably used herein to describe an experimental setup comprising components which simulate, in-vitro, the environment of the GI tracts or components thereto. In a particular example, a gastric simulating system may comprise the following components: HCl 0.1N and pepsin (Kanner et al. ibid).
Hydroperoxides measurement in linoleic acid emulsions: Catechin was dissolved in 10% ethanol in water and the reaction tubes were incubated in triplicate in a shaking bath at 37° C. for 180 min. Samples of 25 or 50 μl were taken from the reaction tubes during the incubation and added to 475 or 950 μl, respectively, of FOX2 reagent. Before each experiment, old stock solution of linoleic acid was mixed with fresh solution in order to maintain an accurately consistent initial level of hydroperoxides.

[2] = system: β-carotene oxidation catalyzed by metmyoglobin; experiment: β-carotene co-oxidation in simulated gastric fluid; format: biochemical
Procedure: Here B carotene co-oxidation was determined in order to identify free radical damage during lipid peroxidation in the same model system of acid gastric fluid (FIG. 2).
However, the addition of catechin to the same system containing metmyoglobin inhibited β-carotene oxidation by 100% (FIG. 2).

[3] = in vivo; cited from earlier work

Row | Compound | lipid peroxidation [1] | peroxide generation [1] | inhibition of β-carotene oxidation ([2]; acid gastric fluid model system containing metmyoglobin) [%] | β-carotene co-oxidation ([2]; low acidic conditions obtained by addition of antacid, metmyoglobin catalyst) | raises pH of the stomach to [3] [pH]
1 | catechin | completely prevented | zero | 100 | completely prevented | –
2 | [Mg+2].[OH-].[OH-] [Magnesium hydroxide] | – | – | – | – | 9
3 | O=C([O-])[O-].[Ca+2] [Calcium carbonate] | – | – | – | – | ≤ 7.0
